These results are taken from patent publication US9260408B2, “Dihydroquinoline-2-one derivatives” (Hoffmann-La Roche Inc., priority 2011, dated 2016).

For assay [1], the target named is T1, human CYP11B2 (Homo sapiens, UniProt P19099).
T1 construct: expressed in transfected cells
T1 sequence (P19099 25-503): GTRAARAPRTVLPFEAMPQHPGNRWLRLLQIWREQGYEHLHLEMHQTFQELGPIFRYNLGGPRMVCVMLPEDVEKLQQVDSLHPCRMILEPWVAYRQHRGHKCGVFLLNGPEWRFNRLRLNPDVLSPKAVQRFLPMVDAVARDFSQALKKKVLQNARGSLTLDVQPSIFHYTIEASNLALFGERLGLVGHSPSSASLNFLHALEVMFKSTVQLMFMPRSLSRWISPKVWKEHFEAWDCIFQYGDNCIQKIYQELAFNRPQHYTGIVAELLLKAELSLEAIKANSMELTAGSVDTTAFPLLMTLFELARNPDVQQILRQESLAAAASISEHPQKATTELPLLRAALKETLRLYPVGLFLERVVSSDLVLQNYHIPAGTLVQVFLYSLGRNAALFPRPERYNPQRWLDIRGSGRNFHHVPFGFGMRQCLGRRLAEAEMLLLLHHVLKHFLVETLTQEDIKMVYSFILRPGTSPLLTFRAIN
Nature of the assay: G-402 cellular enzyme assay, human CYP11B2 (aldosterone release, HTRF). The conditions noted are these: G-402 cells expressing human CYP11B2; 1 μM Deoxycorticosterone. Format: cell-based. In a few lines:
(§1)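 G-402 cells stably expressing human CYP11B2 or CYP11B1, in DMEM/F12 with 2.5% charcoal-treated FCS, were incubated 16 h with compound plus 1 μM deoxycorticosterone (CYP11B2) or 1 μM deoxycortisol (CYP11B1). Aldosterone or cortisol in the supernatant measured by HTRF; EC50 from a 4-parameter MMF fit.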
(In general: Time-resolved FRET reads energy transfer from a long-lived donor to a nearby acceptor.)

Assay [2] deals with T2, human CYP11B1 (Homo sapiens, UniProt P15538).
T2 construct: expressed in transfected cells
T2 sequence (P15538 25-503): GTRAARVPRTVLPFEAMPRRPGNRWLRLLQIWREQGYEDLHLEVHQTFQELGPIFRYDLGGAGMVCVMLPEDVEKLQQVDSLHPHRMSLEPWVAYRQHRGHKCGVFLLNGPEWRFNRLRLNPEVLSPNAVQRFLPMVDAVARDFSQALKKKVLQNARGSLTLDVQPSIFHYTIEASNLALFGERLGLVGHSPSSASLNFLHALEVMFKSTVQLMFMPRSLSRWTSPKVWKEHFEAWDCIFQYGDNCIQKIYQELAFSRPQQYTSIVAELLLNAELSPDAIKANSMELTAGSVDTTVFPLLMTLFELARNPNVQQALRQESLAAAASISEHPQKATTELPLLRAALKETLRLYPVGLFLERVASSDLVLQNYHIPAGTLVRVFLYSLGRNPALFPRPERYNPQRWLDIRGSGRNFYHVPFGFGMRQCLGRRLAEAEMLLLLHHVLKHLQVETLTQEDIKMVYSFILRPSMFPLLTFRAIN
Nature of the assay: G-402 cellular enzyme assay, human CYP11B1 (cortisol release, HTRF). The conditions noted are these: G-402 cells expressing human CYP11B1; 1 μM Deoxycortisol. The class given is cell-based. An outline of the steps:
as §1

pEC50: −log10 of the molar value.

For `CN1C(=O)CCc2cc(-c3cncc(OC[C@@H]4CCN4C(=O)C4CC4)c3)ccc21` [Example 91], the pEC50 (in general, the negative decadic logarithm of the EC50, by convention in mol/L) is 7.37 in assay [1] and 5.51 in assay [2].

For the molecule `Cc1nocc1C(=O)NCc1cncc(-c2ccc3c(c2)CCC(=O)N3C)c1` [Example 92], the pEC50 in assay [1] is 7.80; in assay [2], 6.20.

`Cc1cc(F)cc(C)c1C(=O)NCc1cncc(-c2ccc3c(c2)CCC(=O)N3C)c1` [Example 93]: the pEC50 in assay [1] is 7.64; in assay [2], 6.21.

As to `CCC(=O)N1CC[C@H]1COc1cncc(-c2ccc3c(c2)CCC(=O)N3C)c1` [Example 94], the pEC50 in assay [1] was 7.64; in assay [2], 5.87.

For `CN1C(=O)CCc2cc(-c3cncc(CNC(=O)c4cc(Cl)nnc4Cl)c3)ccc21` [Example 95], the pEC50 in assay [1] is 7.77; in assay [2] it was 5.75.

With `CN1C(=O)CCc2cc(-c3cncc(CNC(=O)c4cn(CC(F)(F)F)nc4C4CC4)c3)ccc21` [Example 96], the figures for the pEC50 in assay [1] and in assay [2] were 7.66 and 5.78, respectively.

As to `CN1C(=O)CCc2cc(-c3cncc(CNC(=O)c4ccccn4)c3)ccc21` [Example 97], the pEC50 in assay [1] is 8.22; in assay [2] it was 6.95.

Turning to `Cc1nn(C)cc1C(=O)NCc1cncc(-c2ccc3c(c2)CCC(=O)N3C)c1` [Example 98], the figures for the pEC50 in assay [1] and in assay [2] were 7.96 and 6.44, respectively.

In the case of `CN1C(=O)CCc2cc(-c3cncc(CNC(=O)c4ncccn4)c3)ccc21` [Example 99], the figures for the pEC50 in assay [1] and in assay [2] were 7.46 and 5.95, respectively.

In the case of `COc1ccc(C(=O)NCc2cncc(-c3ccc4c(c3)CCC(=O)N4C)c2)nn1` [Example 100], the pEC50 in assay [1] was 8.15; in assay [2] it was 6.85.

With `Cc1oncc1C(=O)NCc1cncc(-c2ccc3c(c2)CCC(=O)N3C)c1` [Example 101], the pEC50 in assay [1] is 8.70; in assay [2], 6.75.

On to `Cc1noc(C)c1C(=O)NCCOc1cncc(-c2ccc3c(c2)CCC(=O)N3C)c1` [Example 102], for which the pEC50 in assay [1] was 7.85; in assay [2], 5.84.

Consider `CN1C(=O)CCc2cc(-c3cncc(OCCNC(=O)c4cnn(C)c4)c3)ccc21` [Example 103], for which the pEC50 in assay [1] is 7.82; in assay [2], 5.53.

For the molecule `CN1C(=O)CCc2cc(-c3cncc(CNC(=O)c4ccc(Cl)nn4)c3)ccc21` [Example 104], the pEC50 is 8.00 in assay [1] and 7.03 in assay [2].

With `Cc1cc(C(=O)NCc2cncc(-c3ccc4c(c3)CCC(=O)N4C)c2)c(Cl)nn1` [Example 105], the pEC50 in assay [1] is 7.07; in assay [2], 5.59.

On to `CCC(=O)N1CCC[C@H]1COc1cncc(-c2ccc3c(c2)CCC(=O)N3C)c1` [Example 106], for which the pEC50 in assay [1] was 7.70; in assay [2], 5.57.

`CN1C(=O)CCc2cc(-c3cncc(CNC(=O)c4cnoc4C4CC4)c3)ccc21` [Example 107]: the pEC50 is 8.70 in assay [1] and 7.36 in assay [2].

Take `Cc1nc(C(=O)NCc2cncc(-c3ccc4c(c3)CCC(=O)N4C)c2)c(C(F)(F)F)o1` [Example 108]: the figures for the pEC50 in assay [1] and in assay [2] were 7.49 and 5.95, respectively.

`Cc1nc(C(=O)NCc2cncc(-c3ccc4c(c3)CCC(=O)N4C)c2)co1` [Example 109]: the pEC50 in assay [1] is 7.11; in assay [2] it was 6.15.

With `CN1C(=O)CCc2cc(-c3cncc(CNC(=O)c4ncoc4C4CC4)c3)ccc21` [Example 110], the pEC50 in assay [1] is 8.22; in assay [2] it was 6.73.

In the case of `Cc1nc(C(=O)NCc2cncc(-c3ccc4c(c3)CCC(=O)N4C)c2)c(C)o1` [Example 111], the pEC50 in assay [1] was 8.40; in assay [2], 7.09.

With `Cc1ocnc1C(=O)NCc1cncc(-c2ccc3c(c2)CCC(=O)N3C)c1` [Example 112], the pEC50 was 8.22 in assay [1] and 6.82 in assay [2].

With `Cc1noc(C)c1C(=O)NC1(c2cncc(-c3ccc4c(c3)CCC(=O)N4C)c2)CC1` [Example 113], the values for the pEC50 in assay [1] and in assay [2] were 7.12 and 5.80, respectively.

Take `CN1C(=O)CCc2cc(-c3cncc(CNC(=O)c4cccc(Cl)n4)c3)ccc21` [Example 114]: the pEC50 in assay [1] is 8.10; in assay [2], 6.85.

For `Cc1cccnc1C(=O)NCc1cncc(-c2ccc3c(c2)CCC(=O)N3C)c1` [Example 115, 3-Methyl-pyridine-2-carboxylic acid [5-(1-methyl-2-oxo-1,2,3,4-tetrahydro-quinolin-6-yl)-pyridin-3-ylmethyl]-amide], the pEC50 in assay [1] was 9.00; in assay [2], 7.85.

Regarding `CN1C(=O)CCc2cc(-c3cncc(CNC(=O)c4nc(Cl)ccc4Cl)c3)ccc21` [Example 116], the figures for the pEC50 in assay [1] and in assay [2] were 8.52 and 7.09, respectively.

Turning to `Cc1cccc(C(=O)NCc2cncc(-c3ccc4c(c3)CCC(=O)N4C)c2)n1` [Example 117], the pEC50 in assay [1] is 8.10; in assay [2], 6.92.

Consider `CN1C(=O)CCc2cc(-c3cncc(CNC(=O)c4ncccc4Cl)c3)ccc21` [Example 118, 3-Chloro-pyridine-2-carboxylic acid [5-(1-methyl-2-oxo-1,2,3,4-tetrahydro-quinolin-6-yl)-pyridin-3-ylmethyl]-amide], for which the pEC50 in assay [1] is 8.40; in assay [2], 6.17.

`CN1C(=O)CCc2cc(-c3cncc(CNC(=O)c4ncccc4F)c3)ccc21` [Example 119]: the pEC50 in assay [1] is 8.22; in assay [2], 7.12.

For the molecule `CCC(=O)N1CC[C@@H](Oc2cncc(-c3ccc4c(c3)CCC(=O)N4C)c2)C1` [Example 121], the pEC50 in assay [1] was 7.72; in assay [2] it was 5.86.

As to `CCC(=O)N1CC[C@H](Oc2cncc(-c3cc4c(cc3F)N(C)C(=O)CC4)c2)C1` [Example 122], the values for the pEC50 in assay [1] and in assay [2] were 8.05 and 6.27, respectively.

Turning to `CN1C(=O)CCc2cc(-c3cncc(CNC(=O)c4ncc(C(F)(F)F)cn4)c3)ccc21` [Example 123], the results for the pEC50 in assay [1] and in assay [2] were 7.21 and 5.54, respectively.

Turning to `Cc1cnc(C(=O)NCc2cncc(-c3ccc4c(c3)CCC(=O)N4C)c2)cn1` [Example 124], the pEC50 in assay [1] is 8.30; in assay [2] it was 6.86.

For `CN1C(=O)CCc2cc(-c3cncc(CNC(=O)c4cnc(Cl)cn4)c3)ccc21` [Example 125], the pEC50 in assay [1] was 8.52; in assay [2], 6.81.

For the molecule `CN1C(=O)CCc2cc(-c3cncc(CNC(=O)c4cnc(C(F)(F)F)cn4)c3)ccc21` [Example 126], the pEC50 was 8.15 in assay [1] and 6.19 in assay [2].

Turning to `Cc1noc(C)c1C(=O)NCc1cncc(-c2cc3c(cc2F)N(C)C(=O)CC3)c1` [Example 127], the pEC50 in assay [1] was 7.92; in assay [2], 6.40.

On to `CCC(=O)N1CCC[C@@H]1COc1cncc(-c2ccc3c(c2)CCC(=O)N3C)c1` [Example 128], for which the negative logarithm of the EC50 (pEC50) in assay [1] is 6.92; in assay [2], 5.64.

For the molecule `CCC(=O)N1CC(Oc2cncc(-c3ccc4c(c3)CCC(=O)N4C)c2)C1` [Example 129], the pEC50 in assay [1] is 7.52; in assay [2], 6.21.

Turning to `CCC(=O)NC1(c2cncc(-c3ccc4c(c3)CCC(=O)N4C)c2)COC1` [Example 130], the figures for the pEC50 in assay [1] and in assay [2] were 6.79 and 4.98, respectively.
